Results from US8192962B2, “Processes for detecting toxic substances” (Daikin Industries, Ltd., priority 2001, dated 2012).

Tested on: Genes belonging to other category
Test: DNA chip mRNA expression in yeast, genes belonging to other category (Table 9)
Format: cell-based, Saccharomyces cerevisiae S288C
Summary of the method: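 Chemical exposure: 2 h, log-phase S. cerevisiae S288C, YPD, 25° C., dose set to inhibit growth without death. Profiling: mRNA labeled by reverse transcription with Cy3- or Cy5-dUTP, hybridized to whole-genome array. Output: fluorescence ratio against untreated culture.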

## C=CC=O [(14), acrolein]
Yeast gene YIR024C
  The level of expressed mRNA in the presence of chemical substance/The level of expressed mRNA in the absence of chemical substance: 2.6
Yeast gene YIR039C
  The level of expressed mRNA in the presence of chemical substance/The level of expressed mRNA in the absence of chemical substance: 1.9
Yeast gene YJL030W
  The level of expressed mRNA in the presence of chemical substance/The level of expressed mRNA in the absence of chemical substance: 2.1
Yeast gene YJL035C
  The level of expressed mRNA in the presence of chemical substance/The level of expressed mRNA in the absence of chemical substance: 1.6
Yeast gene YJL053W
  The level of expressed mRNA in the presence of chemical substance/The level of expressed mRNA in the absence of chemical substance: 1.3
Yeast gene YJL073W
  The level of expressed mRNA in the presence of chemical substance/The level of expressed mRNA in the absence of chemical substance: 1.1
Yeast gene YJL089W
  The level of expressed mRNA in the presence of chemical substance/The level of expressed mRNA in the absence of chemical substance: 1.8
Yeast gene YJL116C
  The level of expressed mRNA in the presence of chemical substance/The level of expressed mRNA in the absence of chemical substance: 2.6
Yeast gene YJL146W
  The level of expressed mRNA in the presence of chemical substance/The level of expressed mRNA in the absence of chemical substance: 1.5
Yeast gene YJL164C
  The level of expressed mRNA in the presence of chemical substance/The level of expressed mRNA in the absence of chemical substance: 0.9
Yeast gene YJL210W
  The level of expressed mRNA in the presence of chemical substance/The level of expressed mRNA in the absence of chemical substance: 0.9
Yeast gene YJR004C
  The level of expressed mRNA in the presence of chemical substance/The level of expressed mRNA in the absence of chemical substance: 0.7
Yeast gene YJR086W
  The level of expressed mRNA in the presence of chemical substance/The level of expressed mRNA in the absence of chemical substance: 2.2
Yeast gene YJR099W
  The level of expressed mRNA in the presence of chemical substance/The level of expressed mRNA in the absence of chemical substance: 2.1
Yeast gene YKL008C
  The level of expressed mRNA in the presence of chemical substance/The level of expressed mRNA in the absence of chemical substance: 0.8
Yeast gene YKL013C
  The level of expressed mRNA in the presence of chemical substance/The level of expressed mRNA in the absence of chemical substance: 1.4
Yeast gene YKL039W
  The level of expressed mRNA in the presence of chemical substance/The level of expressed mRNA in the absence of chemical substance: 0.8
Yeast gene YKL041W
  The level of expressed mRNA in the presence of chemical substance/The level of expressed mRNA in the absence of chemical substance: 1.3
Yeast gene YKL070W
  The level of expressed mRNA in the presence of chemical substance/The level of expressed mRNA in the absence of chemical substance: 2.2
Yeast gene YKL096W
  The level of expressed mRNA in the presence of chemical substance/The level of expressed mRNA in the absence of chemical substance: 0.5
Yeast gene YKL103C
  The level of expressed mRNA in the presence of chemical substance/The level of expressed mRNA in the absence of chemical substance: 2.0
Yeast gene YKL117W
  The level of expressed mRNA in the presence of chemical substance/The level of expressed mRNA in the absence of chemical substance: 1.6
Yeast gene YKL139W
  The level of expressed mRNA in the presence of chemical substance/The level of expressed mRNA in the absence of chemical substance: 1.0
Yeast gene YKL165C
  The level of expressed mRNA in the presence of chemical substance/The level of expressed mRNA in the absence of chemical substance: 0.8
Yeast gene YKL193C
  The level of expressed mRNA in the presence of chemical substance/The level of expressed mRNA in the absence of chemical substance: 1.2
Yeast gene YKL196C
  The level of expressed mRNA in the presence of chemical substance/The level of expressed mRNA in the absence of chemical substance: 2.5
Yeast gene YKR014C
  The level of expressed mRNA in the presence of chemical substance/The level of expressed mRNA in the absence of chemical substance: 1.8
Yeast gene YKR098C
  The level of expressed mRNA in the presence of chemical substance/The level of expressed mRNA in the absence of chemical substance: 1.4
Yeast gene YLR093C
  The level of expressed mRNA in the presence of chemical substance/The level of expressed mRNA in the absence of chemical substance: 1.3
Yeast gene YLR107W
  The level of expressed mRNA in the presence of chemical substance/The level of expressed mRNA in the absence of chemical substance: 1.6
Yeast gene YLR118C
  The level of expressed mRNA in the presence of chemical substance/The level of expressed mRNA in the absence of chemical substance: 1.5
Yeast gene YLR120C
  The level of expressed mRNA in the presence of chemical substance/The level of expressed mRNA in the absence of chemical substance: 0.8
Yeast gene YLR136C
  The level of expressed mRNA in the presence of chemical substance/The level of expressed mRNA in the absence of chemical substance: 0.7
Yeast gene YLR178C
  The level of expressed mRNA in the presence of chemical substance/The level of expressed mRNA in the absence of chemical substance: 2.8
Yeast gene YLR250W
  The level of expressed mRNA in the presence of chemical substance/The level of expressed mRNA in the absence of chemical substance: 2.5
Yeast gene YLR251W
  The level of expressed mRNA in the presence of chemical substance/The level of expressed mRNA in the absence of chemical substance: 1.3
Yeast gene YLR266C
  The level of expressed mRNA in the presence of chemical substance/The level of expressed mRNA in the absence of chemical substance: 1.0
Yeast gene YLR327C
  The level of expressed mRNA in the presence of chemical substance/The level of expressed mRNA in the absence of chemical substance: 1.5
Yeast gene YLR356W
  The level of expressed mRNA in the presence of chemical substance/The level of expressed mRNA in the absence of chemical substance: 2.2
Yeast gene YLR362W
  The level of expressed mRNA in the presence of chemical substance/The level of expressed mRNA in the absence of chemical substance: 1.2
Yeast gene YLR391W
  The level of expressed mRNA in the presence of chemical substance/The level of expressed mRNA in the absence of chemical substance: 0.5
Yeast gene YLR429W
  The level of expressed mRNA in the presence of chemical substance/The level of expressed mRNA in the absence of chemical substance: 0.7
Yeast gene YML092C
  The level of expressed mRNA in the presence of chemical substance/The level of expressed mRNA in the absence of chemical substance: 1.6
Yeast gene YMR004W
  The level of expressed mRNA in the presence of chemical substance/The level of expressed mRNA in the absence of chemical substance: 2.2
Yeast gene YMR027W
  The level of expressed mRNA in the presence of chemical substance/The level of expressed mRNA in the absence of chemical substance: 0.9
Yeast gene YMR091C
  The level of expressed mRNA in the presence of chemical substance/The level of expressed mRNA in the absence of chemical substance: 1.5
Yeast gene YMR094W
  The level of expressed mRNA in the presence of chemical substance/The level of expressed mRNA in the absence of chemical substance: 2.8
